The source made the active and inactive calls.
Tests used:
Genome polyprotein = Genome polyprotein (dengue virus type 2, UniProt P29990); assay: Dengue-2 NS5 methyltransferase inhibitors, primary screen, biochemical, confirmation dose response (AID 588689); format: functional
Coagulation factor XII = molecular target: T1, Coagulation factor XII (Homo sapiens, UniProt P00748); format: functional;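 further: activated factor XIIa alpha cleaving a fluorogenic AMC peptide substrate; inhibitor potency from loss of enzyme activity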
T1 sequence (P00748 whole entry): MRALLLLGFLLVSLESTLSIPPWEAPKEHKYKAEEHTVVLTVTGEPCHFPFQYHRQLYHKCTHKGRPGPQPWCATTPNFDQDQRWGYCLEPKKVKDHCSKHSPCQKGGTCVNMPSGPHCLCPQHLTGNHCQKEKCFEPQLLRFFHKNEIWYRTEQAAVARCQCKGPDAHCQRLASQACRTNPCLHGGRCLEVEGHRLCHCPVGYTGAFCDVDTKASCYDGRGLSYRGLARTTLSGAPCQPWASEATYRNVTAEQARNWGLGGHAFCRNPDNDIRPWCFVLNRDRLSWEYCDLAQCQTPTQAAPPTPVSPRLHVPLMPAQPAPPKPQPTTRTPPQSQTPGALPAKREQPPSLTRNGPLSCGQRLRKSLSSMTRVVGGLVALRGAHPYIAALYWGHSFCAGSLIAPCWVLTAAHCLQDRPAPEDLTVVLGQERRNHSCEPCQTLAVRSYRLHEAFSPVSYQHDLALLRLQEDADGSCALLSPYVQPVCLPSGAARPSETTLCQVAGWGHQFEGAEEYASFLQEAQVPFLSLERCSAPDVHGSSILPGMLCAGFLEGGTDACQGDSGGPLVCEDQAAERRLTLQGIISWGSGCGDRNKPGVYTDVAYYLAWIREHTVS

[1] = molecular target: T2, Calpain-2 catalytic subunit (Sus scrofa, UniProt P43367); assay: pig calpain II inhibitor potency, dose response, biochemical, fluorogenic peptide substrate (AID 1420); format: functional
T2 sequence (P43367 whole entry): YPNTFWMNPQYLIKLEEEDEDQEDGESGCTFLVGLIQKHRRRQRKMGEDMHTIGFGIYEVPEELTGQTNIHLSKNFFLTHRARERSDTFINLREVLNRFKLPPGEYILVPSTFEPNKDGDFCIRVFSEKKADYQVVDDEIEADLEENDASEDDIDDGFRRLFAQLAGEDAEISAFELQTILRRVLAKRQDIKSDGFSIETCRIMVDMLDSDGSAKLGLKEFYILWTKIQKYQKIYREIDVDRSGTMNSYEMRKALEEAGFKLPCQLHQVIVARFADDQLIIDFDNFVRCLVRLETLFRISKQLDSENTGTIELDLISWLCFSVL

INS1 = assay: beta cell apoptosis inhibitors, cytokine rescue, dose response, luminescence, retest (AID 449756); format: functional, cell-based; details: Rattus norvegicus;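 further: cell death triggered by IL-1 beta plus TNF-alpha plus IFN-gamma mixture; protective hits raise ATP signal compared with cytokine alone wells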
[2] = C. albicans growth with fluconazole, confirmation, fluorescence, retest (AID 2467); format: functional, cell-based
[3] = molecular target: T3, Ubiquitin-conjugating enzyme E2 N (Homo sapiens, UniProt P61088); format: functional;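 further: Dose-response confirmation in a TR-FRET assay detecting UBC13-driven polyubiquitin chain formation, inhibition measured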
T3 sequence (P61088 whole entry): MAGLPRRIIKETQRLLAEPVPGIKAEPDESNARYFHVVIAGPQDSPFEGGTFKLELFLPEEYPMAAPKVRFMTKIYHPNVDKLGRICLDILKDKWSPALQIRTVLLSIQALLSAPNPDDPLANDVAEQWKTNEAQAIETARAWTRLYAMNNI

[4] = molecular target: Eukaryotic translation initiation factor 4E (Mus musculus, UniProt P63073); assay: eIF4E–eIF4G protein interaction inhibitors, dose response, biochemical, TR-FRET (AID 855); format: functional;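 further: potency for disrupting eIF4E binding to eIF4GI seen as loss of FRET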
Eukaryotic translation initiation factor 4E, sequence (P63073 whole entry): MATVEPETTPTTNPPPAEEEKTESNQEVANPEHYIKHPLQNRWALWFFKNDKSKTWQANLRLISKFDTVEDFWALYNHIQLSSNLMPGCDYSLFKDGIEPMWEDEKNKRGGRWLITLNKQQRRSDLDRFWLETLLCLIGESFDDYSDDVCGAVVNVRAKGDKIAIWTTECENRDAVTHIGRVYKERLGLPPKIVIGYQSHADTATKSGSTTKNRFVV

[5] = molecular target: T4, Apoptotic protease-activating factor 1 (Homo sapiens, UniProt O14727); format: functional
T4 sequence (O14727 whole entry): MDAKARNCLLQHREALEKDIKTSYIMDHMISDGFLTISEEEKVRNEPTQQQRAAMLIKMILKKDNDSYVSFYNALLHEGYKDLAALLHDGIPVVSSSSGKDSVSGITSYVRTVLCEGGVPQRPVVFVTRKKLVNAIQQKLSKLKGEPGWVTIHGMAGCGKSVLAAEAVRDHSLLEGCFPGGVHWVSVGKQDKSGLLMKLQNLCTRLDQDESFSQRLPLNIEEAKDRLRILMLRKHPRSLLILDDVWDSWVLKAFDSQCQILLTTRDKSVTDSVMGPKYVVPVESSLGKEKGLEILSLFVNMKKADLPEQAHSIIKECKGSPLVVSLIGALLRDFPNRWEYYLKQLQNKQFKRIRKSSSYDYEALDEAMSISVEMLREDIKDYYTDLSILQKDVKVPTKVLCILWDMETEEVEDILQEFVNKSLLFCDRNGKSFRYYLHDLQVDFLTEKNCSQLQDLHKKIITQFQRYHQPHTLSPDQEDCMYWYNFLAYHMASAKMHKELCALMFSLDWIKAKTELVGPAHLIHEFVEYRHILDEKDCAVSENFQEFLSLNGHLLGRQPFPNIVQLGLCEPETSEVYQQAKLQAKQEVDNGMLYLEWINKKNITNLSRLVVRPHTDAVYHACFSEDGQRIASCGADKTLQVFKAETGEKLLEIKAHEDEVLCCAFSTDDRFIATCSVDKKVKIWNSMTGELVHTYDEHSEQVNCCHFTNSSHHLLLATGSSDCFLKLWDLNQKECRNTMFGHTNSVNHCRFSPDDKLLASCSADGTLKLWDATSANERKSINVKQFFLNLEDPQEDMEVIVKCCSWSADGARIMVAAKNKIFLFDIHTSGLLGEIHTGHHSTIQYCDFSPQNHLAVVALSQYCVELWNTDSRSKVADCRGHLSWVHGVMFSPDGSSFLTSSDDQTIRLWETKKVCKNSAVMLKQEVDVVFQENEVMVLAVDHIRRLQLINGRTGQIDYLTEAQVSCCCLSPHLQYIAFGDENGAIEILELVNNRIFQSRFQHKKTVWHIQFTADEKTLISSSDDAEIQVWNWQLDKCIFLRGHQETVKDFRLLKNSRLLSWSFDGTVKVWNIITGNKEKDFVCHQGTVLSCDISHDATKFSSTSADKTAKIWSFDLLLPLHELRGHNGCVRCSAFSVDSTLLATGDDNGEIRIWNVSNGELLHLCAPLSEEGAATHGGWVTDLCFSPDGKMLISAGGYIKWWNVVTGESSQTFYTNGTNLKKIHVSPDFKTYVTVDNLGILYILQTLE

Vero [6] = assay: cells; format: functional; details: Chlorocebus sabaeus
[7] = molecular target: Heat shock protein HSP 90-alpha (Homo sapiens, UniProt P07900); format: functional, organism-based
[8] = growth suppression of PTEN-null colon cells, dose response, cell-based, HCT116 PTEN knockout (AID 1047); format: functional;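 further: HCT116 colon tumor cells with PTEN knocked out; cells exposed to compound for 60 hours before readout; potency for loss of cell viability measured by luminescence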
[9] = NIH-3T3 fibroblast cytotoxicity, dose response, cytotoxicity control, cell-based, fluorescence, Alamar Blue, secondary assay (AID 2327); format: functional;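 further: NIH-3T3 mouse fibroblasts cultured with fluconazole at 8 µg/mL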
[10] = growth suppression of beta-catenin-knockout colon cells, dose response, cell-based, HCT116, human colon tumor (AID 1045); format: functional;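 further: HCT116 colon tumor cells with beta catenin knocked out; cells exposed to compound for 60 hours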
[11] = cytotoxicity in HEK-293T cells, dose response, cytotoxicity control for TCR NF-kB inhibitor project, luminescence, T-cell screen hits (AID 489026); format: functional, cell-based;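 further: cells exposed to compound about 14 hours before the viability readout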
BJ [12] = assay: cytotoxicity toward BJ-TERT-LT-ST fibroblasts, dose response, cell-based, RAS-independent, luminescence (AID 1935); format: functional; details: Homo sapiens;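 further: BJ fibroblasts immortalized with TERT plus LT and ST oncogenes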
BJ [13] = assay: cells; format: functional, cell-based; details: Homo sapiens
BJ [14] = assay: cytotoxicity toward BJ-TERT fibroblasts, dose response, cell-based, RAS-independent, luminescence (AID 1933); format: functional; details: Homo sapiens
[15] = molecular target: Beta-2 adrenergic receptor (Homo sapiens, UniProt P07550); assay: beta2AR agonists driving receptor internalization, dose response, cell-based, FAP fluorogen, flow cytometry, cherry pick 1 (AID 588763); format: functional
Beta-2 adrenergic receptor, sequence (P07550 whole entry): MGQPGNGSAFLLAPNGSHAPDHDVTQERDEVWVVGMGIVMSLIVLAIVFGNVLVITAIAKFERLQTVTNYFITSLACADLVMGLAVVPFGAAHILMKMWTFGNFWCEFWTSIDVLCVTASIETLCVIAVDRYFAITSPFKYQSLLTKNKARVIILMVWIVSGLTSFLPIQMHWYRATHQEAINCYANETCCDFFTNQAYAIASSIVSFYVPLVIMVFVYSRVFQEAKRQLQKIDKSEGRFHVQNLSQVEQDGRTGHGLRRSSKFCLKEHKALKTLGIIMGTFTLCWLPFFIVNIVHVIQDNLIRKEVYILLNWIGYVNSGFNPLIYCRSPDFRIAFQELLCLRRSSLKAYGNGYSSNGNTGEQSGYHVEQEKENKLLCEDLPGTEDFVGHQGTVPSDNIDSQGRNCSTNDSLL

[16] = cytotoxicity toward DRD oncogenic fibroblasts, dose response, cell-based, non-viral oncogenic, luminescence (AID 1934); format: functional; details: Homo sapiens
Vero [17] = assay: cells; format: functional, cell-based; details: Chlorocebus sabaeus

Genome polyprotein, sequence (P29990 2492-3391 limits assumed): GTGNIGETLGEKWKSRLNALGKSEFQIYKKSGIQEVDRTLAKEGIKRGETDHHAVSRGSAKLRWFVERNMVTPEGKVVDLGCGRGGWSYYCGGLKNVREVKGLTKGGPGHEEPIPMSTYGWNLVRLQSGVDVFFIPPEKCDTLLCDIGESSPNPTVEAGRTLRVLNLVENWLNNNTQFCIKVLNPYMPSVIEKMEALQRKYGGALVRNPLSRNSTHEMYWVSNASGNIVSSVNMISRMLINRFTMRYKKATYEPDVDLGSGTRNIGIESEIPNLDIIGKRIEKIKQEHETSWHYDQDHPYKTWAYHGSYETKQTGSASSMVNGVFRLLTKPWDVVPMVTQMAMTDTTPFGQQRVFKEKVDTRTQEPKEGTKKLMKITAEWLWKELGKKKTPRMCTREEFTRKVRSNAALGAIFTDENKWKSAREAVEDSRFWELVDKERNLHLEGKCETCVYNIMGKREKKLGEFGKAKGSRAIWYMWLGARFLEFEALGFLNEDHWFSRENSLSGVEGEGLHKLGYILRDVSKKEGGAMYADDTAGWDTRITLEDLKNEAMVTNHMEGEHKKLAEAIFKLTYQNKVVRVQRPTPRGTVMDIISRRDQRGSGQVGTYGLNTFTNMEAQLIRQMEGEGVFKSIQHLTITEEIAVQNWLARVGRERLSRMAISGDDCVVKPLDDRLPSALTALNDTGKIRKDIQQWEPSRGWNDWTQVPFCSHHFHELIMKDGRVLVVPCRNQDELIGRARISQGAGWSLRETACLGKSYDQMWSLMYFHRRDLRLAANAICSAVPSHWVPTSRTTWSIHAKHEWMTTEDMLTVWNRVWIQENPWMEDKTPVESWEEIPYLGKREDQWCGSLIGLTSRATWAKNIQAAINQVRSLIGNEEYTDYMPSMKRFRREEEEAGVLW

For COc1ccccc1N(O)C1CC(=O)N(c2ccc(F)cc2)C1=O (centres undefined), which IC50 (Genome polyprotein) is on record?
Its IC50 is 62 µM (active).

What does the source list for C=CCNC(=S)N/N=C/c1ccc(C)c([N+](=O)[O-])c1?
IC50 (Coagulation factor XII): > 50 µM (inactive); IC50 [1]: 3.49 µM (not active)

Which results are given for c1ccc(-c2csc3ncnc(NCC4COc5ccccc5O4)c23)cc1 (centres undefined)?
IC50 (Coagulation factor XII): > 50 µM (inactive); AC50 (INS1): 1.41 µM (active)

With CCCCCCCCCCCCCCCC[n+]1cccc(C(=O)N(CC)CC)c1 as the molecule, how does the EC50 [2] read?
The EC50 was > 38 µM (not active).

And the IC50 [3]?
The IC50 was > 20 µM (inactive).

And the IC50 [4]?
The IC50 was 28.9 µM (active).

And the IC50 [5]?
The IC50 was 21.5 µM (active).

And the CC50 (Vero [6])?
Its CC50 is 18.1 µM (active).

What about the AC50 (INS1) of the same molecule?
The AC50 was 4.92 µM (active).

And the AC50 [7]?
The AC50 was 2.89 µM (active).

What about the EC50 [8] of the same molecule?
Its EC50 is 6.46 µM (active).

What about the EC50 [9] of the same molecule?
The EC50 was 41.8 µM (active).

What about the EC50 [10] of the same molecule?
The EC50 was 5.92 µM (active).

And the IC50 [11]?
Its IC50 is 24.8 µM (inactive).

For N#CC1=C(N)OC2=C(CCc3ccccc32)C1c1ccccc1 (centres undefined), which EC50 (BJ [12]) is on record?
Its EC50 is 689 nM (inconclusive).

What about the EC50 (BJ [13]) of the same molecule?
The EC50 was 13.5 µM (active).

And the CC50 (Vero [6])?
Its CC50 is 0.17 µM (active).

And the EC50 (BJ [14])?
Its EC50 is 645 nM (inconclusive).

And the EC50 [15]?
Its EC50 is 52.5 µM (inactive).

What about the EC50 [16] of the same molecule?
The EC50 was 610 nM (active).

What about the IC50 (Vero [17]) of the same molecule?
Its IC50 is > 25 µM (active).

Which EC50 [15] does the source give for CCOc1ccc2nc(NC(=O)CSc3nc4cccnc4n3C)sc2c1 here?
Its EC50 is 2.44 µM (active).

Source: ChEMBL document CHEMBL1201862, “PubChem BioAssay data set” (2004)
